Broadly, the inhibition is the change of the read-out against control, counted positive when it falls.

For the test, the system named is Matrix protein 2 (Influenza A virus (A/Udorn/307/1972(H3N2))), P0DOF8 [S31N]. Put plainly: Inhibition of Influenza A virus AM2 S31N mutant expressed in xenopus laevis frog oocytes assessed as inhibition of channel current at 100 uM after 2 mins by two-electrode voltage clamp assay relative to control. The class given is cell-based. (Two-electrode voltage clamp holds a large cell at a set potential and records current.)
As to `COC(=O)c1ccc(-c2ccc(CNC34CC5CC(CC(O)(C5)C3)C4)s2)cc1`, the inhibition stood at 64.3%.

As to `Brc1ccc(CNC23CC4CC(CC(C4)C2)C3)[se]1`, the inhibition was found to be 70.6%.

With `OC12CC3CC(C1)CC(NCc1ccc(I)s1)(C3)C2`, the inhibition was 75.6%.

Take `OC12CC3CC(C1)CC(NCc1ccc(Br)s1)(C3)C2`: the inhibition was 64.7%.

For the molecule `Ic1ccc(CNC23CC4CC(CC(C4)C2)C3)s1`, the inhibition is 78.5%.

`COc1ncc(-c2ccc(CNC34CC5CC(CC(O)(C5)C3)C4)s2)cn1`: the inhibition worked out at 4.4%.

`COc1ccc(-c2ccc(CNC34CC5CC(CC(O)(C5)C3)C4)s2)cn1`: the inhibition came out at 68.3%.

Take `OC12CC3CC(C1)CC(NCc1nc(Br)cs1)(C3)C2`: the inhibition was 36%.

For `CSc1ccccc1-c1ccc(CNC23CC4CC(CC(O)(C4)C2)C3)s1`, the inhibition is 73.4%.

With `OC12CC3CC(C1)CC(NCc1ccc(-c4ccc(F)cc4F)s1)(C3)C2`, the inhibition turned out to be 74.5%.

For the molecule `c1csc(-c2ccc(CNC34CC5CC(CC(C5)C3)C4)s2)c1`, the inhibition was found to be 86.1%.

On to `OC12CC3CC(C1)CC(NCc1ccc(-c4ccccc4Cl)s1)(C3)C2`, for which the inhibition was 78.7%.

With `OC12CC3CC(C1)CC(NCc1ccc(-c4ccccc4)s1)(C3)C2`, the inhibition was found to be 84.6%.

Turning to `Brc1ccc(CNC23CCC4CC(CC(C4)C2)C3)s1`, the inhibition amounted to 72.6%.

`OC12CC3CC(C1)CC(NCc1csc(Br)c1)(C3)C2`: the inhibition came to 48.3%.

Regarding `OC12CC3CC(C1)CC(NCc1cnc(Br)s1)(C3)C2`, the inhibition worked out at 33.5%.

With `OC12CC3CC(C1)CC(NCc1cc(Br)cs1)(C3)C2`, the inhibition was 56.6%.

As for `COc1ccc(-c2ccc(CNC34CC5CC(CC(O)(C5)C3)C4)s2)cc1OC`, the inhibition was 37.6%.

The values are drawn from ChEMBL document CHEMBL4266060, “Structure-Property Relationship Studies of Influenza A Virus AM2-S31N Proton Channel Blockers” (ACS Med Chem Lett, 2018).
